According to publication PMC4051630, “A Comparison of Protein Kinases Inhibitor Screening Methods Using Both Enzymatic Activity and Binding Affinity Determination” (PLoS ONE, 2014):

Columns and labels:
Test in all cases: Differential Scanning Fluorimetry (DSF) Tm shift
Format in all cases: binding
PAK4 Catalytic Domain = molecular target: T1, PAK4 Catalytic Domain (Homo sapiens, UniProt O96013); conditions: 2 µM protein, 10 µM inhibitor, average of 3 experiments, each in duplicate
T1 construct: For all of them, we expressed and purified the catalytic domain separately; His-tag; made in house; host or cells: Escherichia coli

FAK2 Catalytic Domain = molecular target: T2, FAK2 Catalytic Domain (Homo sapiens, UniProt Q14289); conditions: 2 µM protein, 10 µM inhibitor, average of 3 experiments, each in duplicate
T2 construct: For all of them, we expressed and purified the catalytic domain separately; His-tag; made in house; host or cells: Escherichia coli

STK3 Catalytic Domain = molecular target: T3, STK3 Catalytic Domain (Homo sapiens, UniProt Q13188); conditions: 2 µM protein, 10 µM inhibitor, average of 3 experiments, each in duplicate
T3 construct: For all of them, we expressed and purified the catalytic domain separately; His-tag; made in house; host or cells: Escherichia coli
T3 sequence (Q13188 27-278 limits assumed): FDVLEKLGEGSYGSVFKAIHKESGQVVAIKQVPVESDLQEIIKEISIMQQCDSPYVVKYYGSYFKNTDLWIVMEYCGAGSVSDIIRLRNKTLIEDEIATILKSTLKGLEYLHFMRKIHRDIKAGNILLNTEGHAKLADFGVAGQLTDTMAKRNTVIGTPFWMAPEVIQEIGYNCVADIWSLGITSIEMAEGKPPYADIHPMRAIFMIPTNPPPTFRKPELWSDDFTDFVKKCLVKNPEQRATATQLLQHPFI

FES Catalytic Domain = molecular target: T4, FES Catalytic Domain (Homo sapiens, UniProt P07332); conditions: 2 µM protein, 10 µM inhibitor, average of 3 experiments, each in duplicate
T4 construct: For all of them, we expressed and purified the catalytic domain separately; His-tag; made in house; host or cells: Escherichia coli

PAK7 Catalytic Domain = molecular target: T5, PAK7 Catalytic Domain (Homo sapiens, UniProt Q9P286); conditions: 2 µM protein, 10 µM inhibitor, average of 3 experiments, each in duplicate
T5 construct: For all of them, we expressed and purified the catalytic domain separately; His-tag; made in house; host or cells: Escherichia coli

[1] = molecular target: SRC Catalytic Domain+SH2+SH3 (Homo sapiens, UniProt P12931); conditions: 2 µM protein, 10 µM inhibitor, average of 3 experiments, each in duplicate
DMPK Catalytic Domain = molecular target: T6, DMPK Catalytic Domain (Homo sapiens, UniProt Q09013); conditions: 2 µM protein, 10 µM inhibitor, average of 3 experiments, each in duplicate
T6 construct: For all of them, we expressed and purified the catalytic domain separately; His-tag; made in house; host or cells: Escherichia coli
T6 sequence (Q09013 71-339 limits assumed): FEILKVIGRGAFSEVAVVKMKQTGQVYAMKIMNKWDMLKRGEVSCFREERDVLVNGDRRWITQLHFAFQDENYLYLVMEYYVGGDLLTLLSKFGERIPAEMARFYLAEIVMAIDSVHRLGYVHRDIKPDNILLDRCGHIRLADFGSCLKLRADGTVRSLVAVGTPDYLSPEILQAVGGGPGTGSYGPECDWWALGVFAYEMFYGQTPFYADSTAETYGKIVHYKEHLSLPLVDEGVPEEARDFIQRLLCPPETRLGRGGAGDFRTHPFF

[2] = molecular target: T7, STK3 Catalytic domain+SARAH (Homo sapiens, UniProt Q13188); conditions: 2 µM protein, 10 µM inhibitor, average of 3 experiments, each in duplicate
T7 construct: for 8, we also made a longer version containing one or more additional domains; His-tag; made in house; host or cells: Escherichia coli
T7 sequence (Q13188 1-491): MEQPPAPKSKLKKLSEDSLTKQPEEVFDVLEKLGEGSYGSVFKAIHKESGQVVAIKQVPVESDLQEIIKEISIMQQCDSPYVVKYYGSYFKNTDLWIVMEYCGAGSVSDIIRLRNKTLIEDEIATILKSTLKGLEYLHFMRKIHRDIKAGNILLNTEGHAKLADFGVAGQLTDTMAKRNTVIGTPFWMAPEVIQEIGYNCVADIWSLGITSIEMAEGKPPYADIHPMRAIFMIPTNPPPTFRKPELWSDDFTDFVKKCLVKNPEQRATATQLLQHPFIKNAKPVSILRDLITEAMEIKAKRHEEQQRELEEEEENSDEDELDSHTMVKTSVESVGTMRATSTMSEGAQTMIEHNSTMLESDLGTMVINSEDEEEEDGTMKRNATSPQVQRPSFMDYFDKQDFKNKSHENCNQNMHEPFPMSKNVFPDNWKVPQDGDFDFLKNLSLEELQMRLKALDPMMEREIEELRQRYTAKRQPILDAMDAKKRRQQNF

CDK2 + Cyclin A = molecular target: T8, CDK2 + Cyclin A (Homo sapiens, UniProt P24941); conditions: CDK2 + Cyclin A; 2 µM protein, 10 µM inhibitor; average of 3 experiments, each in duplicate
T8 construct: CDK2 (P24941); 1–299; His-tag; made in house; host or cells: Escherichia coli

FES Catalytic Domain+SH2 = molecular target: T9, FES Catalytic Domain+SH2 (Homo sapiens, UniProt P07332); conditions: 2 µM protein, 10 µM inhibitor, average of 3 experiments, each in duplicate
T9 construct: for 8, we also made a longer version containing one or more additional domains; His-tag; made in house; host or cells: Escherichia coli

[3] = molecular target: T10, PAK4 Catalytic Domain+PBD (Homo sapiens, UniProt O96013); conditions: 2 µM protein, 10 µM inhibitor, average of 3 experiments, each in duplicate
T10 construct: for 8, we also made a longer version containing one or more additional domains; His-tag; made in house; host or cells: Escherichia coli

SRC Catalytic Domain = SRC Catalytic Domain (Homo sapiens, UniProt P12931); set-up: For all of them, we expressed and purified the catalytic domain separately; His-tag; made in house; host or cells: Escherichia coli; conditions: 2 µM protein, 10 µM inhibitor, average of 3 experiments, each in duplicate
CHK2 Catalytic Domain = molecular target: T11, CHK2 Catalytic Domain (Homo sapiens, UniProt O96017); conditions: 2 µM protein, 10 µM inhibitor, average of 3 experiments, each in duplicate
T11 construct: For all of them, we expressed and purified the catalytic domain separately; His-tag; made in house; host or cells: Escherichia coli

AKT3 Catalytic Domain = molecular target: T12, AKT3 Catalytic Domain (Homo sapiens, UniProt Q9Y243); conditions: 2 µM protein, 10 µM inhibitor, average of 3 experiments, each in duplicate
T12 construct: AKT3 (Q9Y243); CD; His-tag; made in house; host or cells: Escherichia coli

CDK2 + Cyclin E = molecular target: T13, CDK2 + Cyclin E (Homo sapiens, UniProt P24941); conditions: CDK2 + Cyclin E; 2 µM protein, 10 µM inhibitor; average of 3 experiments, each in duplicate
T13 construct: CDK2 (P24941); 1–299; His-tag; made in house; host or cells: Escherichia coli

T12 sequence (Q9Y243 122-479): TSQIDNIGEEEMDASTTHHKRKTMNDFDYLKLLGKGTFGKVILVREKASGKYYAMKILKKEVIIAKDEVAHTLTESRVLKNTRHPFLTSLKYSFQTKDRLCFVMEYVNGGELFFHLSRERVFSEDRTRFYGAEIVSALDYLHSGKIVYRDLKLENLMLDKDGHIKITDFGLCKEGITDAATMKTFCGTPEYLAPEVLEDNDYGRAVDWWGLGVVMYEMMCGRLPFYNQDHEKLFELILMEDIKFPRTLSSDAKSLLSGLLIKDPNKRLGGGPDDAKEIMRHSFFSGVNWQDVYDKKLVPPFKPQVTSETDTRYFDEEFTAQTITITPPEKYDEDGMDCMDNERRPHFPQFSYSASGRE
T5 sequence (Q9P286 449-700 limits assumed): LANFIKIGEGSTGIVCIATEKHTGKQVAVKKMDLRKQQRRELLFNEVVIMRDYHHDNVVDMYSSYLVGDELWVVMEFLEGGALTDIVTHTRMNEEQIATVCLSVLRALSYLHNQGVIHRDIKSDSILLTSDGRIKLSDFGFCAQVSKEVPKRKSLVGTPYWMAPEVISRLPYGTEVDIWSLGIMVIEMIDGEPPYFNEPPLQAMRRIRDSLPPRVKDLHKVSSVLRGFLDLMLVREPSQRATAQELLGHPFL
T11 sequence (O96017 220-486 limits assumed): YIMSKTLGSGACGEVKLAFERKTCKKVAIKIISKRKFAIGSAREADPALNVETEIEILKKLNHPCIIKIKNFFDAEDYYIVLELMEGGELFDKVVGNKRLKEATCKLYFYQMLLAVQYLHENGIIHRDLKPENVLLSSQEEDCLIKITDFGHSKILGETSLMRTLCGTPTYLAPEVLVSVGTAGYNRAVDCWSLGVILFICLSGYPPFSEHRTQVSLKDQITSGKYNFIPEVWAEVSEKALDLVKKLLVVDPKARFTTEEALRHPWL
T4 sequence (P07332 561-822 limits assumed): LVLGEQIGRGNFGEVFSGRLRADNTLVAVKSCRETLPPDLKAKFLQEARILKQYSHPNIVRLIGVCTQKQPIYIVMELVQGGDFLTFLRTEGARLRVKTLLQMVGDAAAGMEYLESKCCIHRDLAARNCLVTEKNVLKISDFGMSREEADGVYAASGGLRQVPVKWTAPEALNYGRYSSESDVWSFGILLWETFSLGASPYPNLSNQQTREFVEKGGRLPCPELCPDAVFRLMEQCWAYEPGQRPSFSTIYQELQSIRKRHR
T9 sequence (P07332 448-822 limits assumed): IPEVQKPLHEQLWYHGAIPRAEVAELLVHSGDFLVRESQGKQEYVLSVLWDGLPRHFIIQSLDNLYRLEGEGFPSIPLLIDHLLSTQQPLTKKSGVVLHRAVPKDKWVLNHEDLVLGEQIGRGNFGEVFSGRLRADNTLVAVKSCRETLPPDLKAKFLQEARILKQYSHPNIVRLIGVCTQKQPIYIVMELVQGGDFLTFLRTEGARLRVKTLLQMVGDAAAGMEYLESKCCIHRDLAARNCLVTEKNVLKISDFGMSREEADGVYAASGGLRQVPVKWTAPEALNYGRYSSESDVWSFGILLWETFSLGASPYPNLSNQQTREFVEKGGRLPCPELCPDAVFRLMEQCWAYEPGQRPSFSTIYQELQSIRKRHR
T10 sequence (O96013 whole entry, the tested form may be a part): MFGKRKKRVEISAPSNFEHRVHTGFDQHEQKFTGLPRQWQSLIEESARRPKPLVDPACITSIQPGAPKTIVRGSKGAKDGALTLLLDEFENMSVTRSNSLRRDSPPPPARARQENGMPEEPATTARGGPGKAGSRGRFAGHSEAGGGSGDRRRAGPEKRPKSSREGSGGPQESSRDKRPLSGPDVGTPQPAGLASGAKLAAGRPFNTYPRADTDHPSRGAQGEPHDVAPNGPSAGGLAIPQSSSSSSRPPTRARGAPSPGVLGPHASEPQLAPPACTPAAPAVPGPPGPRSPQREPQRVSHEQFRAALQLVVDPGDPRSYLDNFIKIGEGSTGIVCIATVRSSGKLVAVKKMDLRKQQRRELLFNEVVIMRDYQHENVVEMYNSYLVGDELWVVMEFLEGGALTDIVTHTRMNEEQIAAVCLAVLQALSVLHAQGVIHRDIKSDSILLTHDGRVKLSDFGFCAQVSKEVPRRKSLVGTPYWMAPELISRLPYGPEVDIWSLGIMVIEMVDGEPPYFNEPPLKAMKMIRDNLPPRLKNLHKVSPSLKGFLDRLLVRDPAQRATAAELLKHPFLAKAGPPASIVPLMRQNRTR
T2 sequence (Q14289 425-683 limits assumed): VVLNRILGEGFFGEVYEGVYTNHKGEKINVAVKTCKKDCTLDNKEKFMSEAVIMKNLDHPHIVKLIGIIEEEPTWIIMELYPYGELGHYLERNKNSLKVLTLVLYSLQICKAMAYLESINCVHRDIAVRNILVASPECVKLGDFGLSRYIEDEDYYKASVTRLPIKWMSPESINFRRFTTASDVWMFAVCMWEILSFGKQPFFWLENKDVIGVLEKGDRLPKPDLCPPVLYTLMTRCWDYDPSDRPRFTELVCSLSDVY
T1 sequence (O96013 321-572 limits assumed): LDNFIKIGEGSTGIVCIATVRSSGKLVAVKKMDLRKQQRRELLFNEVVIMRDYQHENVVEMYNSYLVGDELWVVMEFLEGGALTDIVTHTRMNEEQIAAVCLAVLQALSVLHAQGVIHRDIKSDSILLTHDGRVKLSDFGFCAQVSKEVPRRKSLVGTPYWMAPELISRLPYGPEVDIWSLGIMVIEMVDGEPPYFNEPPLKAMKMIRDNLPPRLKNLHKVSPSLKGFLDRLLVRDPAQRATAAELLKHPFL

Melting temperature (Tm) shift (PAK4 Catalytic Domain)	Melting temperature (Tm) shift (FAK2 Catalytic Domain)	Melting temperature (Tm) shift (STK3 Catalytic Domain)	Melting temperature (Tm) shift (FES Catalytic Domain)	Melting temperature (Tm) shift (PAK7 Catalytic Domain)	Melting temperature (Tm) shift [1]	Melting temperature (Tm) shift (DMPK Catalytic Domain)	Melting temperature (Tm) shift [2]	Melting temperature (Tm) shift (CDK2 + Cyclin A)	Melting temperature (Tm) shift (FES Catalytic Domain+SH2)	Melting temperature (Tm) shift [3]	Melting temperature (Tm) shift (SRC Catalytic Domain)	Melting temperature (Tm) shift (CHK2 Catalytic Domain)	Melting temperature (Tm) shift (AKT3 Catalytic Domain)	Melting temperature (Tm) shift (CDK2 + Cyclin E)	Compound
0.5 degrees Celcius	0.5 degrees Celcius	0.2 degrees Celcius	0.0 degrees Celcius	0.1 degrees Celcius	0.1 degrees Celcius	1.4 degrees Celcius	0.4 degrees Celcius	0.2 degrees Celcius	0.2 degrees Celcius	0.6 degrees Celcius	0.2 degrees Celcius	0.3 degrees Celcius	0.1 degrees Celcius	0.5 degrees Celcius	N#Cc1cnc2cnc(NCc3cccnc3)cc2c1Nc1ccc(F)c(Cl)c1 [Tpl2 Kinase Inhibitor]
0.7 degrees Celcius	2.6 degrees Celcius	2.3 degrees Celcius	3.0 degrees Celcius	0.3 degrees Celcius	0.3 degrees Celcius	1.4 degrees Celcius	3.4 degrees Celcius	2.9 degrees Celcius	0.6 degrees Celcius	0.6 degrees Celcius	0.2 degrees Celcius	8.7 degrees Celcius	0.0 degrees Celcius	1.9 degrees Celcius	Chk2 Inhibitor
0.7 degrees Celcius	0.1 degrees Celcius	0.3 degrees Celcius	1.2 degrees Celcius	0.5 degrees Celcius	0.6 degrees Celcius	1.5 degrees Celcius	0.4 degrees Celcius	1.0 degrees Celcius	0.4 degrees Celcius	0.8 degrees Celcius	0.5 degrees Celcius	1.1 degrees Celcius	0.3 degrees Celcius	0.5 degrees Celcius	c1cc(-c2cnn3cc(-c4ccc(OCCN5CCCCC5)cc4)cnc23)ccn1 [AMPK Inhibitor, Compound C]

Compound	Melting temperature (Tm) shift (PAK4 Catalytic Domain)	Melting temperature (Tm) shift (FAK2 Catalytic Domain)	Melting temperature (Tm) shift (STK3 Catalytic Domain)	Melting temperature (Tm) shift (FES Catalytic Domain)	Melting temperature (Tm) shift (PAK7 Catalytic Domain)	Melting temperature (Tm) shift [1]	Melting temperature (Tm) shift (DMPK Catalytic Domain)	Melting temperature (Tm) shift [2]	Melting temperature (Tm) shift (CDK2 + Cyclin A)	Melting temperature (Tm) shift (FES Catalytic Domain+SH2)	Melting temperature (Tm) shift [3]	Melting temperature (Tm) shift (SRC Catalytic Domain)	Melting temperature (Tm) shift (CHK2 Catalytic Domain)	Melting temperature (Tm) shift (AKT3 Catalytic Domain)	Melting temperature (Tm) shift (CDK2 + Cyclin E)
Nc1cccc(-c2cc3c(Oc4cccc(O)c4)ncnc3[nH]2)c1 [GSK3b Inhibitor XII, TWS119]	1.3 degrees Celcius	1.5 degrees Celcius	0.3 degrees Celcius	4.1 degrees Celcius	1.1 degrees Celcius	3.1 degrees Celcius	1.2 degrees Celcius	0.5 degrees Celcius	0.7 degrees Celcius	2.0 degrees Celcius	1.5 degrees Celcius	2.6 degrees Celcius	2.1 degrees Celcius	0.1 degrees Celcius	0.2 degrees Celcius
